The record followed here is US20090163586A1, “Bis-(Sulfonylamino) Derivatives in Therapy 205” (AstraZeneca AB, priority 2007, published 2009).

The target of the test is T1, human mPGES-1 (Homo sapiens, UniProt O14684).
T1 sequence (O14684 1-152): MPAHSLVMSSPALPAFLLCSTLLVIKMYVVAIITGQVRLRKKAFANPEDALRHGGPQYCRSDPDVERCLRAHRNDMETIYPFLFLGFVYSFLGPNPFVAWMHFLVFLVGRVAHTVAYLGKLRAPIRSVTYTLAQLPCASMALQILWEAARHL
The test is described as follows: Microsomal prostaglandin E synthase biochemical assay. Particulars: microsome preparation containing human mPGES-1; PGH2 10.8 μM, GSH 2.5 mM, pH 6.8; PGE2 by HTRF; average of at least n=2. How it is done: Compounds were tested as inhibitors of microsomal prostaglandin E synthase activity in microsomal prostaglandin E synthase assays and whole cell assays. These assays measure prostaglandin E2 (PGE2) synthesis which is taken as a measure of prostaglandin E synthase activity. Microsomal prostaglandin E synthase biochemical assays used microsomal prostaglandin E synthase-1 in microsomal preparations. The source of the microsomes can be for example interleukin-1β-stimulated human A549 cells (which express human mPGES-1) or Sf9 cells transfected with plasmids encoding human mPGES-1 cDNA. The whole blood assay [described by Patrignani, P. et al., Journal of Pharmacology and Experimental Therapeutics, 1994, vol. 271, pp 1705-1712] was used as the whole cell assay for testing the compounds. Whole blood provides a protein and cell rich milieu for the study of biochemical efficacy of anti-inflammatory compounds such as prostaglandin synthase inhibitors. To study the inhibitory activities of these compounds, human blood was stimulated with lipopolysaccharide (LPS) for typically 16 hours to induce mPGES-1 expression, after which the concentration of produced PGE2 was measured by competitive-immuno assay (homogeneous time-resolved fluorescence, HTRF) as read out for effectiveness against mPGES-1-dependent PGE2 production.
Microsomal Prostaglandin E Synthase Biochemical Assay
A solution of test compound was added to a diluted microsome preparation containing human mPGES-1 and pre-incubated for 15 minutes in potassium phosphate buffer pH 6.8 with cofactor glutathione (GSH). Corresponding solutions without test compound were used as positive controls, and corresponding solutions without test compound and without microsomes were used as negative controls. The enzymatic reaction was then started by addition of the substrate PGH2 in an organic solution (dry acetonitrile).
The typical reaction conditions of the enzymatic reaction were thus: Test compound: ranging from 60 μM to 0.002 μM, or zero in positive and negative controls; potassium phosphate buffer pH 6.8: 50 mM; GSH: 2.5 mM; mPGES-1-containing microsomes: 2 μg/mL (sample and positive controls) or 0 μg/mL (negative control); PGH2: 10.8 μM; Acetonitrile: 7.7% (v/v); DMSO: 0.6% (v/v). The reaction was stopped after one minute by adding an acidic solution (pH 1.9) of ferric chloride and citrate (final concentrations 7 mM and 47 mM respectively), by which the PGH2 was sequestered (the PGH2 is reduced to mainly 12-hydroxy heptadecatrineoic acid (12-HHT) which is not detected by the subsequent PGE2 detection step). The resulting solution was then pH neutralized by addition of potassium phosphate buffer, prior to diluting an aliquot of the resulting solution in a weak potassium phosphate buffer (50 mM, pH 6.8) containing 0.2% BSA (w/v). [Adapted from Jacobsson et al., Proc. Natl. Acad. Sci. USA, 1999, vol. 96, pp. 7220-7225]The PGE2 formed was quantified by use of a commercial HTRF based kit (catalogue #62PG2PEC or #62P2APEC from Cisbio International). 100% activity was defined as the PGE2 production in positive controls subtracted by the PGE2 production in the negative controls. IC50 values were then determined using standard procedures.
The potency is expressed as IC50 and the value indicated is an average of at least n=2.
A general note: TR-FRET usually uses a lanthanide donor and a delayed reading to cut background.

By IC50 is commonly meant the midpoint of a concentration-inhibition curve. The low end stands for higher potency, the high end for lower potency.

Molecule `N#Cc1ccc(/C=C/S(=O)(=O)Nc2cccc(F)c2S(N)(=O)=O)cc1` [Example 32, 2-[[(E)-2-(4-Cyanophenyl)ethenyl]sulfonylamino]-6-fluoro-benzenesulfonamide] came in with an IC50 of 5100 nM.

In turn, `N#Cc1ccc(/C=C/S(=O)(=O)Nc2ccccc2S(N)(=O)=O)cc1` [Example 33, 2-[[(E)-2-(4-Cyanophenyl)ethenyl]sulfonylamino]benzenesulfonamide] registered an IC50 of 1100 nM. Against the preceding molecule, the IC50 is about 4.6-fold lower.

`NS(=O)(=O)c1ccc(F)cc1NS(=O)(=O)/C=C/c1ccc(-c2ccco2)cc1` [Example 34, 4-Fluoro-2-[[(E)-2-[4-(2-furyl)phenyl]ethenyl]sulfonylamino]benzenesulfonamide]: it took 120 nM to reach half-maximal inhibition (IC50).

The molecule `NS(=O)(=O)c1cc(F)ccc1NS(=O)(=O)/C=C/c1ccc(-c2ccco2)cc1` [Example 35, 5-Fluoro-2-[[(E)-2-[4-(2-furyl)phenyl]ethenyl]sulfonylamino]benzenesulfonamide] showed a half-maximal inhibitory concentration (IC50) of 170 nM.

`NS(=O)(=O)c1c(F)cccc1NS(=O)(=O)/C=C/c1ccc(-c2ccco2)cc1` [Example 36, 2-Fluoro-6-[[(E)-2-[4-(2-furyl)phenyl]ethenyl]sulfonylamino]benzenesulfonamide] had an IC50 of 57 nM.

Molecule `CSc1ccc(/C=C/S(=O)(=O)Nc2cc(F)ccc2S(N)(=O)=O)cc1` [Example 37, 4-Fluoro-2-[[(E)-2-(4-methylsulfanylphenyl)ethenyl]sulfonylamino]-benzenesulfonamide] came in with a half-maximal inhibitory concentration (IC50) of 160 nM.

Turning to `CSc1ccc(/C=C/S(=O)(=O)Nc2ccc(F)cc2S(N)(=O)=O)cc1` [Example 38, 5-Fluoro-2-[[(E)-2-(4-methylsulfanylphenyl)ethenyl]sulfonylamino]-benzenesulfonamide], the concentration for half-maximal inhibition (IC50) is 220 nM. The IC50 values of the last two molecules are within 1.5-fold of each other.

The molecule `CSc1ccc(/C=C/S(=O)(=O)Nc2cccc(F)c2S(N)(=O)=O)cc1` [Example 39, 2-Fluoro-6-[[(E)-2-(4-methylsulfanylphenyl)ethenyl]sulfonylamino]-benzenesulfonamide] yielded an IC50 of 1400 nM.

The molecule `CSc1ccc(/C=C/S(=O)(=O)Nc2ccccc2S(N)(=O)=O)cc1` [Example 40, 2-[[(E)-2-(4-Methylsulfanylphenyl)ethenyl]sulfonylamino]benzenesulfonamide] registered an IC50 of 1200 nM.

For the molecule `NS(=O)(=O)c1ccc(F)cc1NS(=O)(=O)/C=C/c1ccc(OC(F)F)cc1` [Example 41, 2-[[(E)-2-[4-(Difluoromethoxy)phenyl]ethenyl]sulfonylamino]-4-fluoro-benzenesulfonamide], the IC50 came to 1100 nM. The IC50 values of the last two molecules are within 1.5-fold of each other.

For `NS(=O)(=O)c1cc(F)ccc1NS(=O)(=O)/C=C/c1ccc(OC(F)F)cc1` [Example 42, 2-[[(E)-2-[4-(Difluoromethoxy)phenyl]ethenyl]sulfonylamino]-5-fluoro-benzenesulfonamide], the IC50 was 1600 nM.

`NS(=O)(=O)c1c(F)cccc1NS(=O)(=O)/C=C/c1ccc(OC(F)F)cc1` [Example 43, 2-[[(E)-2-[4-(Difluoromethoxy)phenyl]ethenyl]sulfonylamino]-6-fluoro-benzenesulfonamide] displayed an IC50 of 110 nM. Against the preceding molecule, the IC50 is about 15-fold lower.

`NS(=O)(=O)c1cc(CO)ccc1NS(=O)(=O)CCc1ccc(Cl)cc1` [Example 44, 2-[2-(4-Chlorophenyl)ethylsulfonylamino]-5-(hydroxymethyl)benzenesulfonamide] displayed an IC50 of 750 nM.

Turning to `Cc1ccc(NS(=O)(=O)CCc2ccc(Cl)cc2)c(S(N)(=O)=O)c1` [Example 45, 2-[2-(4-Chloro-phenyl)-ethanesulfonylamino]-5-methylbenzenesulfonamide], the half-maximal inhibitory concentration (IC50) turned out to be 1300 nM.

Regarding `NS(=O)(=O)c1cc(OCc2ccccn2)ccc1NS(=O)(=O)CCc1ccc(Cl)cc1` [Example 46, 2-[2-(4-Chlorophenyl)ethylsulfonylamino]-5-(pyridin-2-ylmethoxy)benzenesulfonamide], the half-inhibitory concentration (IC50) is 1100 nM.

On to `Cc1nnc(COc2ccc(NS(=O)(=O)CCc3ccc(Cl)cc3)c(S(N)(=O)=O)c2)o1` [Example 47, 2-[2-(4-Chlorophenyl)ethylsulfonylamino]-5-[(5-methyl-1,3,4-oxadiazol-2-yl)methoxy]benzenesulfonamide], for which the IC50 was found to be 1600 nM.

`NS(=O)(=O)c1ccccc1NS(=O)(=O)/C=C/c1ccccc1Cl` [Example 48, 2-[2-(2-Chloro-phenyl)-ethenesulfonylamino]-benzenesulfonamide] showed an IC50 of 590 nM.

In the case of `COc1cc(Cl)ccc1/C=C/S(=O)(=O)Nc1ccccc1S(N)(=O)=O` [Example 49, 2-[2-(4-Chloro-2-methoxy-phenyl)-ethenesulfonylamino]-benzenesulfonamide], the midpoint of inhibition, the IC50, lay at 36 nM. Compared with the last molecule, the IC50 is about 16-fold lower.

`NS(=O)(=O)c1c(F)cccc1NS(=O)(=O)/C=C/c1ccc(-c2ccccc2)cc1` [Example 50, 2-Fluoro-6-[[(E)-2-(4-phenylphenyl)ethenyl]sulfonylamino]benzenesulfonamide] came in with an IC50 of 130 nM.

`NS(=O)(=O)c1cc(F)ccc1NS(=O)(=O)/C=C/c1cccc(Cl)c1` [Example 51, 2-[[(E)-2-(3-Chlorophenyl)ethenyl]sulfonylamino]-5-fluoro-benzenesulfonamide] registered an IC50 of 4900 nM.

As to `NS(=O)(=O)c1cc(F)ccc1NS(=O)(=O)/C=C/c1ccc(-c2ccccc2)cc1` [Example 52, 5-Fluoro-2-[[(E)-2-(4-phenylphenyl)ethenyl]sulfonylamino]benzenesulfonamide], the IC50 came to 84 nM.

With `NS(=O)(=O)c1ccc(F)cc1NS(=O)(=O)/C=C/c1ccc(-c2ccccc2)cc1` [Example 53, 4-Fluoro-2-[[(E)-2-(4-phenylphenyl)ethenyl]sulfonylamino]benzenesulfonamide], the IC50 was determined as 160 nM. Against the preceding molecule, the IC50 is about 1.9-fold higher.

Molecule `NS(=O)(=O)c1cc(F)ccc1NS(=O)(=O)/C=C/c1cccc(C(F)(F)F)c1` [Example 54, 5-Fluoro-2-[[(E)-2-[3-(trifluoromethyl)phenyl]ethenyl]sulfonylamino]-benzenesulfonamide] yielded a 50% inhibitory concentration (IC50) of 270 nM.

In turn, `COc1ccccc1/C=C/S(=O)(=O)Nc1ccc(F)cc1S(N)(=O)=O` [Example 55, 5-Fluoro-2-[[(E)-2-(2-methoxyphenyl)ethenyl]sulfonylamino]benzenesulfonamide] showed an IC50 of 360 nM.

The molecule `NS(=O)(=O)c1c(F)cccc1NS(=O)(=O)/C=C/c1cccc(Cl)c1` [Example 56, 2-[[(E)-2-(3-Chlorophenyl)ethenyl]sulfonylamino]-6-fluoro-benzenesulfonamide] showed an IC50 of 530 nM. The IC50 values of the last two molecules are within 1.5-fold of each other.

As to `COc1ccccc1/C=C/S(=O)(=O)Nc1cccc(F)c1S(N)(=O)=O` [Example 57, 2-Fluoro-6-[[(E)-2-(2-methoxyphenyl)ethenyl]sulfonylamino]benzenesulfonamide], the midpoint of inhibition, the IC50, lay at 620 nM.

`COc1ccccc1/C=C/S(=O)(=O)Nc1cc(F)ccc1S(N)(=O)=O` [Example 58, 4-Fluoro-2-[[(E)-2-(2-methoxyphenyl)ethenyl]sulfonylamino]benzenesulfonamide] had a 50% inhibitory concentration (IC50) of 300 nM.

Take `NS(=O)(=O)c1cccc(F)c1NS(=O)(=O)/C=C/c1ccc(-c2ccccc2)cc1` [Example 59, 3-Fluoro-2-[[(E)-2-(4-phenylphenyl)ethenyl]sulfonylamino]benzenesulfonamide]: the concentration for half-maximal inhibition (IC50) turned out to be 2300 nM.

On to `COc1ccccc1/C=C/S(=O)(=O)Nc1c(F)cccc1S(N)(=O)=O` [Example 60, 3-Fluoro-2-[[(E)-2-(2-methoxyphenyl)ethenyl]sulfonylamino]benzenesulfonamide], for which the half-inhibitory concentration (IC50) stood at 2400 nM.

The molecule `NS(=O)(=O)c1ccc(F)cc1NS(=O)(=O)/C=C/c1cccc(C(F)(F)F)c1` [Example 61, 4-Fluoro-2-[[(E)-2-[3-(trifluoromethyl)phenyl]ethenyl]sulfonylamino]-benzenesulfonamide] had an IC50 of 2400 nM.

The molecule `NS(=O)(=O)c1c(F)cccc1NS(=O)(=O)/C=C/c1ccccc1F` [Example 62, 2-Fluoro-6-[[(E)-2-(2-fluorophenyl)ethenyl]sulfonylamino]benzenesulfonamide] came in with an IC50 of 2500 nM. The IC50 values of the last two molecules are within 1.5-fold of each other.
